Test results taken from patent US20100298385A1, “PROTEIN KINASE INHIBITORS USEFUL FOR TREATMENT OF CANCERS” (priority 2007, published 2010).

What was measured:
Type in all cases: cell-based
A375s-2 = assay: MTT test, inhibition of cell proliferation; conditions: A375-S2, 72 hours
Procedure: (§1) Cell incubation: the cancer cells strains are incubated in RPMI 1640 with 10% FBS, grow along the wall at 37° C. under 5% CO2 incubator.
(§2) Sample solutions: First prepare material at 100 mM in DMSO, then diluted to DMSO 4.95% using 3% DMSO FBS solution.
(§3) MTT test: cancer cells are incubated at a density of 5×10^3 cells/well in 96 well cell Culture plate for 24 hours, then added different sample solutions for 72 hours. At the end of incubation, 5 mg/mL MTT 15 μL was added to each well and stayed for 4 hours, vacuumed the solution, added DMSO 150 μL, shaked for 10 minutes, tested at […] for the OD value in the spectrophotometer, and calculated the inhibition rate of cell proliferation.
(§4) Inhibition rate of cell proliferation=(control OD−sample OD)/control OD)*100%

U937 = assay: MTT test, inhibition of cell proliferation; conditions: Homo sapiens, U-937, 72 hours
Procedure: as §1, §2, §3, §4

A431 = assay: MTT test, inhibition of cell proliferation; conditions: Homo sapiens, A-431, 72 hours
Procedure: as §1, §2, §3, §4

MCF-7 = assay: MTT test, inhibition of cell proliferation; conditions: Homo sapiens, MCF7, 72 h
Procedure: as §1, §2, §3, §4

K562 = assay: MTT test, inhibition of cell proliferation; conditions: Homo sapiens, 72 hours
Procedure: as §1, §2, §3, §4

BGC-823 = assay: MTT test, inhibition of cell proliferation; conditions: Homo sapiens, 72 hours
Procedure: as §1, §2, §3, §4

HL-60 = assay: MTT test, inhibition of cell proliferation; conditions: Homo sapiens, 72 hours
Procedure: as §1, §2, §3, §4

L929 = assay: MTT test, inhibition of cell proliferation; conditions: Mus musculus, 72 hours
Procedure: as §1, §2, §3, §4

Bel-7402 = assay: MTT test, inhibition of cell proliferation; conditions: Homo sapiens, 72 hours
Procedure: as §1, §2, §3, §4

A549 = assay: MTT test, inhibition of cell proliferation; conditions: Homo sapiens, 72 hours
Procedure: as §1, §2, §3, §4

KB = assay: MTT test, inhibition of cell proliferation; conditions: Homo sapiens, 72 h
Procedure: as §1, §2, §3, §4

HepG-2 = assay: MTT test, inhibition of cell proliferation; conditions: Homo sapiens, HepG2, 72 hours
Procedure: as §1, §2, §3, §4

Hela = assay: MTT test, inhibition of cell proliferation; conditions: Homo sapiens, 72 hours
Procedure: as §1, §2, §3, §4

cancer cells = assay: MTT test, positive controls on the different cells; conditions: at 0.4, 0.8, 1.6, 3.2, and 6.4 μm/L
Procedure: as §1, §2, §3, §4

Row | Compound | IC50 (A375s-2) [µM] | IC50 (U937) [µM] | IC50 (A431) [µM] | IC50 (MCF-7; MCF-7, first listing (r2)) [µM] | IC50 (MCF-7; MCF-7, second listing (r6)) [µM] | IC50 (K562) [µM] | IC50 (BGC-823) [µM] | IC50 (HL-60) [µM] | IC50 (L929) [µM] | IC50 (Bel-7402) [µM] | IC50 (A549) [µM] | IC50 (KB; first listing (r12)) [µM] | IC50 (KB; second listing (r16)) [µM] | IC50 (HepG-2) [µM] | IC50 (Hela) [µM] | inhibition for the different cells (cancer cells)
1 | CNC(=O)c1cc(Oc2ccc(NC(=O)Nc3nc(C)c(C(C)(C)C)s3)cc2)ccn1 [Compound A, 4-{4-[3-(5-tert-Butyl-4-methyl-thiazol-2-yl)-ureido]-phenoxy}-pyridine-2-carboxylic acid methylamide] | 31 to 50 | 11 to 30 | 11 to 30 | ≤ 10 | ≤ 10 | 31 to 50 | 11 to 30 | 11 to 30 | 31 to 50 | ≤ 10 | 31 to 50 | 11 to 30 | 11 to 30 | 11 to 30 | 31 to 50 | 
2 | O=P1(N(CCCl)CCCl)NCCCO1 (centres unmarked) [CYC, cyclophosphamide] |  |  |  |  |  |  |  |  |  |  |  |  |  |  |  | dose-dependent
3 | CNC(=O)c1cc(Oc2ccc(CC(=O)Nc3ccc(Cl)c(C(F)(F)F)c3)cc2)ccn1 [Compound C, 4-(4-[(4-chloro-3-trifluoromethylphenylaminocarbonyl)-methyl]phenoxy)pyridin-2-carboxylic acid methylamide] | 11 to 30 | ≤ 10 | 11 to 30 | 31 to 50 | 11 to 30 | 31 to 50 | 11 to 30 | ≤ 10 | 31 to 50 | ≤ 10 | 31 to 50 | 31 to 50 | 11 to 30 | 11 to 30 | 11 to 30 | 
4 | CC(=O)O[C@H]1C(=O)[C@@]2(C)[C@H]([C@H](OC(=O)c3ccccc3)[C@]3(O)C[C@H](OC(=O)[C@H](O)[C@@H](NC(=O)c4ccccc4)c4ccccc4)C(C)=C1C3(C)C)[C@]1(OC(C)=O)CO[C@@H]1C[C@@H]2O [Paclitaxel] |  |  |  |  |  |  |  |  |  |  |  |  |  |  |  | dose-dependent
